The values that follow are results of earlier work, collected in US20240139108A1, “ORAL PHARMACEUTICAL COMPOSITION OF ARSENIC TRIOXIDE” (INTAS PHARMACEUTICALS LTD., priority 2021, published 2024).

For data set [1] the following is noted: orally administered versus same amount administered intravenously.

As to Diarsenic trioxide, the solubility in water result is given as “low solubility in water”. In data set [1], the peak plasma concentration result is given as “lower peak plasma concentration”; the “prolongation of the QT interval and ventricular tachycardia” value was “less prolongation of the QT interval and ventricular tachycardia”.
